Patent US20240033234A1, “THERAPEUTIC COMPOUNDS, FORMULATIONS, AND USE THEREOF” (Tvardi Therapeutics, Inc., priority 2022, published 2024)
Where “and” joins values, the source holds several entries; their conditions need not be identical. Equal values may be shown once.

Assay: Accelerated and long term stability study of TTI-101 (Batch A, Batch B): HPLC assay, purity, impurities and water content after storage at 5° C., 25° C./60% RH, 30° C./65% RH or 40° C./75% RH
Format: physicochemical
Method: Exemplary HPLC conditions: diluent was 0.1% trifluoroacetic acid (TFA) in acetonitrile, Mobile Phase A was 0.05% TFA in water, and Mobile Phase B was 0.05% TFA in acetonitrile, column (Agilent, Eclipse XDB-C18, 3.0×100 mm, particle size 1.8 μm), flow (0.425 mL/min), and detector (280 nm diode array).
Batch A was prepared analogously using Method 3 as described in Example 1. Batch B was prepared according to Method 5 as described in Example 1.
Samples of TTI-101 were stored at 5° C., 25° C./60% RH, 30° C./65% RH, or 40° C./75% RH. TTI-101 was stored in an LDPE bag enclosed with a Nylon cable tie and then transferred to another LDPE bag and enclosed with a Nylon cable tie. The enclosure was put into an HDPE bottle and closed with a polyethylene-lined polypropylene cap. The samples were stored under the above-identified conditions.
The samples were analyzed using HPLC with the exemplary conditions identified above. Relative retention time (RRT) for Compound 5 was about 0.83, Compound 4 was about 1.05-1.06, Compound 6 was about 1.15-1.17, and compound of formula (IV) was about 0.99.
• NA not applicable • NQ ≥0.02% and <0.05% • Avg average • Cmpd compound • — no peak • M month • RRT relative retention time

[1] = Storage 25° C./60% RH, 6 M, Prep P1-P2
[2] = Storage 25° C./60% RH, 6 M, Prep P1-P2, listed as Batch B
[3] = Storage 25° C./60% RH, 9 M, Avg
[4] = Storage 25° C./60% RH, 9 M, Prep P1-P2
[5] = Storage 25° C./60% RH, 9 M, Prep P1-P2, listed as Batch B
[6] = Storage 40° C./75% RH, 0 M, Avg
[7] = Storage 40° C./75% RH, 0 M, Prep P1-P5
[8] = Storage 40° C./75% RH, 0 M, Prep P1-P5, listed as Batch B
[9] = Storage 40° C./75% RH, 1 M, Avg
[10] = Storage 40° C./75% RH, 1 M, Prep P1-P2
[11] = Storage 40° C./75% RH, 3 M, Avg
[12] = Storage 40° C./75% RH, 3 M, Prep P1-P2
[13] = Storage 40° C./75% RH, 3 M, Prep P1-P2, listed as Batch B
[14] = Storage 40° C./75% RH, 6 M, Avg
[15] = Storage 40° C./75% RH, 6 M, Prep P1-P2
[16] = Storage 40° C./75% RH, 6 M, Prep P1-P2, listed as Batch B

With `COc1ccc(S(=O)(=O)Nc2cc(-c3c(O)ccc4ccccc34)c(O)c3ccccc23)cc1` [TTI-101] the “Impurity RRT 0.84” value [1] was “NQ (≥0.02% and <0.05%)”, the “Impurity RRT 0.87” value [1] was “NQ (≥0.02% and <0.05%)” and the “Impurity RRT 1.05” value [1] was “NQ (≥0.02% and <0.05%)”. For the same molecule, the “Impurity RRT 1.06 (Cmpd 4)” value [1] was “NQ (≥0.02% and <0.05%)”, the “Impurity RRT 1.39” value [1] was “NQ (≥0.02% and <0.05%)” and the “Water Content” value [1] was under 0.04%. The Assay [2] was 99.0% and 98.5%, the “Impurity RRT 1.17 (Cmp 6)” value [2] was 0.23 area % and 0.25 area % and the Purity [2] was 99.6% and 99.5%. The Assay [3] was 99.0%, the “Impurities Total” value [3] was 0.4 area % and the “Impurity RRT 0.84” value [3] was “NQ (≥0.02% and <0.05%)”. For the same molecule, the “Impurity RRT 0.87” value [3] was “NQ (≥0.02% and <0.05%)”, the “Impurity RRT 0.99” value [3] was 0.12 area % and the “Impurity RRT 1.02” value [3] was 0.06 area %. For the same molecule, the “Impurity RRT 1.16 (Cmp 6)” value [3] was 0.18 area %, the “Impurity RRT 1.39” value [3] was “NQ (≥0.02% and <0.05%)” and the Purity [3] was 99.5%. The “Water Content” value [3] was 0.1%, the “Impurities Total” value [4] was 0.4 area % and the “Impurity RRT 0.84” value [4] was “NQ (≥0.02% and <0.05%)”. For the same molecule, the “Impurity RRT 0.87” value [4] was “NQ (≥0.02% and <0.05%)”, the “Impurity RRT 1.02” value [4] was 0.06 area % and the “Impurity RRT 1.16 (Cmp 6)” value [4] was 0.18 area %. The “Impurity RRT 1.39” value [4] was “NQ (≥0.02% and <0.05%)”, the “Water Content” value [4] was 0.1% and the Assay [5] was 99.7% and 98.2%. The “Impurity RRT 0.99” value [5] was 0.12 area % and 0.13 area %, the Purity [5] was 99.6% and 99.5% and the Assay [6] was 99.4%. The “Impurities Total” value [6] was 0.1 area %, the “Impurity RRT 0.61” value [6] was 0.05 area % and the “Impurity RRT 0.86” value [6] was “NQ (≥0.02% and <0.05%)”. The “Impurity RRT 0.88” value [6] was “NQ (≥0.02% and <0.05%)”, the “Impurity RRT 0.99” value [6] was “NQ (≥0.02% and <0.05%)” and the “Impurity RRT 1.16 (Cmp 6)” value [6] was 0.07 area %. For the same molecule, the Purity [6] was 99.8%, the “Water Content” value [6] was 0.1% and the “Water Content” value (Storage 40° C./75% RH, 0 M, Prep P1-P2) was 0.1%. The “Impurities Total” value [7] was 0.1 area %, the “Impurity RRT 0.86” value [7] was “NQ (≥0.02% and <0.05%)” and the “Impurity RRT 0.99” value [7] was “NQ (≥0.02% and <0.05%)”. The Purity [7] was 99.8%, the Assay [8] was 99.0% and 100.5% and 99.3% and 99.5% and 98.8% and the “Impurity RRT 1.16 (Cmp 6)” value [8] was 0.08 area % and 0.07 area %. For the same molecule, the Assay [9] was 99.2%, the “Impurities Total” value [9] was 0.6 area % and the “Impurity RRT 0.80” value [9] was “NQ (≥0.02% and <0.05%)”. For the same molecule, the “Impurity RRT 0.84” value [9] was “NQ (≥0.02% and <0.05%)”, the “Impurity RRT 0.87” value [9] was “NQ (≥0.02% and <0.05%)” and the “Impurity RRT 0.99” value [9] was 0.14 area %. For the same molecule, the “Impurity RRT 1.02” value [9] was 0.06 area %, the “Impurity RRT 1.05” value [9] was “NQ (≥0.02% and <0.05%)” and the “Impurity RRT 1.06 (Cmpd 4)” value [9] was “NQ (≥0.02% and <0.05%)”. The “Impurity RRT 1.17 (Cmp 6)” value [9] was 0.38 area %, the “Impurity RRT 1.39” value [9] was 0.05 area % and the Purity [9] was 99.3%. The “Water Content” value [9] was 0.1%, the “Impurities Total” value [10] was 0.6 area % and the “Impurity RRT 0.80” value [10] was “NQ (≥0.02% and <0.05%)”. The “Impurity RRT 0.84” value [10] was “NQ (≥0.02% and <0.05%)”, the “Impurity RRT 0.87” value [10] was “NQ (≥0.02% and <0.05%)” and the “Impurity RRT 0.99” value [10] was 0.14 area %. The “Impurity RRT 1.02” value [10] was 0.06 area %, the “Impurity RRT 1.05” value [10] was “NQ (≥0.02% and <0.05%)” and the “Impurity RRT 1.06 (Cmpd 4)” value [10] was “NQ (≥0.02% and <0.05%)”. The “Impurity RRT 1.17 (Cmp 6)” value [10] was 0.38 area %, the “Impurity RRT 1.39” value [10] was 0.05 area % and the Purity [10] was 99.3%. The “Water Content” value [10] was 0.1%, the Assay (Storage 40° C./75% RH, 1 M, Prep P1-P2, listed as Batch B) was 99.1% and 99.4% and the Assay [11] was 98.7%. The “Impurities Total” value [11] was 1.0 area %, the “Impurity RRT 0.38” value [11] was “NQ (≥0.02% and <0.05%)” and the “Impurity RRT 0.80” value [11] was “NQ (≥0.02% and <0.05%)”. The “Impurity RRT 0.84” value [11] was “NQ (≥0.02% and <0.05%)”, the “Impurity RRT 0.87” value [11] was “NQ (≥0.02% and <0.05%)” and the “Impurity RRT 0.99” value [11] was 0.24 area %. The “Impurity RRT 1.02” value [11] was 0.19 area %, the “Impurity RRT 1.06 (Cmpd 4)” value [11] was “NQ (≥0.02% and <0.05%)” and the “Impurity RRT 1.17 (Cmp 6)” value [11] was 0.37 area %. For the same molecule, the “Impurity RRT 1.39” value [11] was 0.16 area %, the Purity [11] was 98.9% and the “Water Content” value [11] was 0.04%. The “Impurity RRT 0.38” value [12] was “NQ (≥0.02% and <0.05%)”, the “Impurity RRT 0.80” value [12] was “NQ (≥0.02% and <0.05%)” and the “Impurity RRT 0.84” value [12] was “NQ (≥0.02% and <0.05%)”. For the same molecule, the “Impurity RRT 0.87” value [12] was “NQ (≥0.02% and <0.05%)”, the “Impurity RRT 0.99” value [12] was 0.24 area % and the “Impurity RRT 1.02” value [12] was 0.19 area %. For the same molecule, the “Impurity RRT 1.39” value [12] was 0.16 area %, the Purity [12] was 98.9% and the Assay [13] was 98.5% and 99.0%. The “Impurities Total” value [13] was 1.0 area % and 0.9 area %, the “Impurity RRT 1.17 (Cmp 6)” value [13] was 0.39 area % and 0.35 area % and the “Water Content” value [13] was <0.04% and 0.04%. For the same molecule, the Assay [14] was 98.4%, the “Impurities Total” value [14] was 1.0 area % and the “Impurity RRT 0.39” value [14] was “NQ (≥0.02% and <0.05%)”. The “Impurity RRT 0.80” value [14] was “NQ (≥0.02% and <0.05%)”, the “Impurity RRT 0.84” value [14] was “NQ (≥0.02% and <0.05%)” and the “Impurity RRT 0.87” value [14] was “NQ (≥0.02% and <0.05%)”. For the same molecule, the “Impurity RRT 0.99” value [14] was “NQ (≥0.02% and <0.05%)”, the “Impurity RRT 1.02” value [14] was 0.34 area % and the “Impurity RRT 1.06 (Cmpd 4)” value [14] was “NQ (≥0.02% and <0.05%)”. For the same molecule, the “Impurity RRT 1.17 (Cmp 6)” value [14] was 0.30 area %, the “Impurity RRT 1.27” value [14] was “NQ (≥0.02% and <0.05%)” and the “Impurity RRT 1.39” value [14] was 0.34 area %. The Purity [14] was 98.9%, the “Water Content” value [14] was under 0.04% and the “Impurities Total” value [15] was 1.0 area %. The “Impurity RRT 0.39” value [15] was “NQ (≥0.02% and <0.05%)”, the “Impurity RRT 0.80” value [15] was “NQ (≥0.02% and <0.05%)” and the “Impurity RRT 0.84” value [15] was “NQ (≥0.02% and <0.05%)”. The “Impurity RRT 0.87” value [15] was “NQ (≥0.02% and <0.05%)”, the “Impurity RRT 0.99” value [15] was “NQ (≥0.02% and <0.05%)” and the “Impurity RRT 1.02” value [15] was 0.34 area %. The “Impurity RRT 1.06 (Cmpd 4)” value [15] was “NQ (≥0.02% and <0.05%)”, the “Impurity RRT 1.39” value [15] was 0.34 area % and the “Water Content” value [15] was under 0.04%. For the same molecule, the Assay [16] was 98.6% and 98.2%, the “Impurity RRT 1.17 (Cmp 6)” value [16] was 0.31 area % and 0.29 area % and the Purity [16] was 98.8% and 98.9%. The stability (over 24 months) was “excellent stability”.
